Data as given in patent US10689377B2 (Mirati Therapeutics, Inc., priority 2017, dated 2020).
pIC50: −log10 of the molar value.

molecular target: KRas G12C (Homo sapiens, UniProt P01116, G12C); assay: Cellular inhibition of KRas G12C measured by Phospho-ERK in NCI-H358 cells; assay type: cell-based; settings: pERK(Thr202/Tyr204) normalized with GAPDH, NCI-H358 cells, 3 hours; read-out: IC50
Procedure, shortened: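 Ratio of phospho-ERK(Thr202/Tyr204) to GAPDH, read by near-infrared secondary antibodies on fixed, permeabilised NCI-H358 cells, expressed relative to DMSO control. Compound exposure was 3 h at 0.5% DMSO. IC50 values come from 4-parameter curve fits.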

Sequence of KRas G12C (P01116 1-188 isoform P01116-2 G12C): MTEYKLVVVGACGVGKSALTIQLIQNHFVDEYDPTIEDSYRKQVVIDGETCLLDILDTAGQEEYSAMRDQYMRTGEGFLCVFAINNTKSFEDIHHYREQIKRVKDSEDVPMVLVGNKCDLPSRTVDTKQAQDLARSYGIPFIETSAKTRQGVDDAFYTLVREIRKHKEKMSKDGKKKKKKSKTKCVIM

Row | SMILES | pIC50
1 | C=CC(=O)N1CCN(c2nc(OC[C@@H]3CCCN3CC)nc3c2CCN(c2cc(O)cc4ccccc24)C3)CC1 [Example 197, (S)-1-(4-(2-((1-ethylpyrrolidin-2-yl)methoxy)-7-(3-hydroxynaphthalen-1-yl)-5,6,7,8-tetrahydropyrido[3,4-d]pyrimidin-4-yl)piperazin-1-yl)prop-2-en-1-one] | 6.00 to 10.00
2 | C/C=C/C(=O)N1CCN(c2nc(OC[C@@H]3CCCN3C)nc3c2CCN(c2cc(O)cc4ccccc24)C3)CC1 [Example 198, (S,E)-1-(4-(7-(3-hydroxynaphthalen-1-yl)-2-((1-methylpyrrolidin-2-yl)methoxy)-5,6,7,8-tetrahydropyrido[3,4-d]pyrimidin-4-yl)piperazin-1-yl)but-2-en-1-one] | < 6.00
3 | CN(C)C/C=C/C(=O)N1CCN(c2nc(OC[C@@H]3CCCN3C)nc3c2CCN(c2cc(O)cc4ccccc24)C3)CC1 [Example 199, (S,E)-4-(dimethylamino)-1-(4-(7-(3-hydroxynaphthalen-1-yl)-2-((1-methylpyrrolidin-2-yl)methoxy)-5,6,7,8-tetrahydropyrido[3,4-d]pyrimidin-4-yl)piperazin-1-yl)but-2-en-1-one] | < 6.00
4 | C=CC(=O)N1CCN(c2nc(OC[C@@H]3CCCN3C)nc3c2CCN(c2cccc4ccccc24)C3)CC1 [Example 200, (S)-1-(4-(2-((1-methylpyrrolidin-2-yl)methoxy)-7-(naphthalen-1-yl)-5,6,7,8-tetrahydropyrido[3,4-d]pyrimidin-4-yl)piperazin-1-yl)prop-2-en-1-one] | < 6.00
5 | C=CC(=O)N1CCN(c2nc(OC[C@@H]3CCCN3C)nc3c2CCN(c2cccc4ccccc24)C3)C[C@H]1C [Example 201, 1-((R)-2-methyl-4-(2-(((S)-1-methylpyrrolidin-2-yl)methoxy)-7-(naphthalen-1-yl)-5,6,7,8-tetrahydropyrido[3,4-d]pyrimidin-4-yl)piperazin-1-yl)prop-2-en-1-one] | < 6.00
6 | C=CC(=O)N1CCN(c2nc(OC[C@@H]3CCCN3C)nc3c2CCN(c2cc(O)cc4ccccc24)C3)[C@@H](C)C1 [Example 202, 1-((S)-4-(7-(3-hydroxynaphthalen-1-yl)-2-(((S)-1-methylpyrrolidin-2-yl)methoxy)-5,6,7,8-tetrahydropyrido[3,4-d]pyrimidin-4-yl)-3-methylpiperazin-1-yl)prop-2-en-1-one] | 6.00 to 10.00
7 | C=CC(=O)N1CCN(c2nc(OC[C@H]3CCCN3C)nc3c2CCN(c2cc(O)cc4ccccc24)C3)[C@@H](C)C1 [Example 203, 1-((S)-4-(7-(3-hydroxynaphthalen-1-yl)-2-(((R)-1-methylpyrrolidin-2-yl)methoxy)-5,6,7,8-tetrahydropyrido[3,4-d]pyrimidin-4-yl)-3-methylpiperazin-1-yl)prop-2-en-1-one] | 6.00 to 10.00
8 | C=CC(=O)N1CCN(c2nc(NC3CCN(C4CC4)CC3)nc3c2CCN(c2cc(O)cc4ccccc24)C3)CC1 [Example 204, 1-(4-(2-((1-cyclopropylpiperidin-4-yl)amino)-7-(3-hydroxynaphthalen-1-yl)-5,6,7,8-tetrahydropyrido[3,4-d]pyrimidin-4-yl)piperazin-1-yl)prop-2-en-1-one] | < 6.00
9 | C=CC(=O)N1CCN(c2nc(OCCCN3CCOCC3)nc3c2CCN(c2c(C)ccc4[nH]ccc24)C3)CC1 [Example 209, 1-(4-(7-(5-methyl-1H-indol-4-yl)-2-(3-morpholinopropoxy)-5,6,7,8-tetrahydropyrido[3,4-d]pyrimidin-4-yl)piperazin-1-yl)prop-2-en-1-one] | < 6.00
10 | C=CC(=O)N1CCN(c2nc(OC[C@@H]3CCCN3C)nc3c2CCN(c2ccccc2OC(F)(F)F)C3)CC1CC#N (stereo partly drawn) [Example 211, 2-(1-acryloyl-4-(2-(((S)-1-methylpyrrolidin-2-yl)methoxy)-7-(2-(trifluoromethoxy)phenyl)-5,6,7,8-tetrahydropyrido[3,4-d]pyrimidin-4-yl)piperazin-2-yl)acetonitrile] | 6.00 to 10.00
11 | C=CC(=O)N1CCN(c2nc(OC[C@@H]3CCCN3C)nc3c2CCN(c2cnccc2C(F)(F)F)C3)CC1CC#N (stereo partly drawn) [Example 212, 2-(1-acryloyl-4-(2-(((S)-1-methylpyrrolidin-2-yl)methoxy)-7-(4-(trifluoromethyl)pyridin-3-yl)-5,6,7,8-tetrahydropyrido[3,4-d]pyrimidin-4-yl)piperazin-2-yl)acetonitrile] | 6.00 to 10.00
12 | C=CC(=O)N1CCN(c2nc(OCCCN3CCOCC3)nc3c2CCN(c2cc(O)cc(C)c2C)C3)CC1 [Example 213, 1-(4-(7-(5-hydroxy-2,3-dimethylphenyl)-2-(3-morpholinopropoxy)-5,6,7,8-tetrahydropyrido[3,4-d]pyrimidin-4-yl)piperazin-1-yl)prop-2-en-1-one] | < 6.00
13 | C=CC(=O)N1CCN(c2nc(OCCCN3CCOCC3)nc3c2CCN(c2cc(O)ccc2SC(F)(F)F)C3)CC1 [Example 214, 1-(4-(7-(5-hydroxy-2-((trifluoromethyl)thio)phenyl)-2-(3-morpholinopropoxy)-5,6,7,8-tetrahydropyrido[3,4-d]pyrimidin-4-yl)piperazin-1-yl)prop-2-en-1-one] | < 6.00
14 | C=CC(=O)N1CCN(c2nc(OC(CO)CN3CCOCC3)nc3c2CCN(c2cc(O)cc4ccccc24)C3)CC1 (stereo not shown) [Example 217, 1-(4-(2-((1-hydroxy-3-morpholinopropan-2-yl)oxy)-7-(3-hydroxynaphthalen-1-yl)-5,6,7,8-tetrahydropyrido[3,4-d]pyrimidin-4-yl)piperazin-1-yl)prop-2-en-1-one] | < 6.00
15 | C=CC(=O)N1CCN(c2nc(OC[C@@H]3C[C@@H](O)CN3C)nc3c2CCN(c2cccc4ccccc24)C3)CC1CC#N (stereo partly drawn) [Example 218, 2-(1-acryloyl-4-(2-(((2S,4R)-4-hydroxy-1-methylpyrrolidin-2-yl)methoxy)-7-(naphthalen-1-yl)-5,6,7,8-tetrahydropyrido[3,4-d]pyrimidin-4-yl)piperazin-2-yl)acetonitrile] | 6.00 to 10.00
16 | C=CC(=O)N1CCN(c2nc(OCC3CN(C)CCN3C)nc3c2CCN(c2cc(O)cc4ccccc24)C3)CC1 (stereo not shown) [Example 219, 1-(4-(2-((1,4-dimethylpiperazin-2-yl)methoxy)-7-(3-hydroxynaphthalen-1-yl)-5,6,7,8-tetrahydropyrido[3,4-d]pyrimidin-4-yl)piperazin-1-yl)prop-2-en-1-one] | < 6.00
17 | C=CC(=O)N1CCN(c2nc(OC[C@@H]3C[C@H](F)CN3C)nc3c2CCN(c2cccc4ccccc24)C3)CC1CC#N (stereo partly drawn) [Example 221, 2-(1-acryloyl-4-(2-(((2S,4S)-4-fluoro-1-methylpyrrolidin-2-yl)methoxy)-7-(naphthalen-1-yl)-5,6,7,8-tetrahydropyrido[3,4-d]pyrimidin-4-yl)piperazin-2-yl)acetonitrile] | 6.00 to 10.00
18 | C=CC(=O)N1CCN(c2nc(OC[C@@H]3C[C@H](OC)CN3C)nc3c2CCN(c2cccc4ccccc24)C3)CC1CC#N (stereo partly drawn) [Example 222, 2-(1-acryloyl-4-(2-(((2S,4S)-4-methoxy-1-methylpyrrolidin-2-yl)methoxy)-7-(naphthalen-1-yl)-5,6,7,8-tetrahydropyrido[3,4-d]pyrimidin-4-yl)piperazin-2-yl)acetonitrile] | 6.00 to 10.00
19 | C=CC(=O)N1CCN(c2nc(OC[C@@H]3CN(C)CCN3)nc3c2CCN(c2cccc4ccccc24)C3)CC1CC#N (stereo partly drawn) [Example 223, 2-(1-acryloyl-4-(2-(((S)-4-methylpiperazin-2-yl)methoxy)-7-(naphthalen-1-yl)-5,6,7,8-tetrahydropyrido[3,4-d]pyrimidin-4-yl)piperazin-2-yl)acetonitrile] | 6.00 to 10.00
